This note sets out measurements from patent publication US20250026748A1, “N-(5-SUBSTITUTED-[(1,3,4-THIADIAZOLYL) OR (THIAZOLYL)])(SUBSTITUTED)CARBOXAMIDE COMPOUNDS AND USE THEREOF FOR INHIBITING HUMAN POLYMERASE THETA” (Repare Therapeutics Inc., priority 2021, published 2025).

Molecules are shown by their SMILES.

As a reminder, the IC50 is the concentration at which inhibition is half-maximal. A higher IC50 goes with weaker potency.

The assay addresses PolQ ATPase enzyme (1-894) (Homo sapiens (Human), UniProt O75417). The experiment in a line: Polθ ATPase enzymatic assay (0.5 nM enzyme concentration), ADP-Glo. The following applies: average IC50; 0.5 nM PolQ ATPase enzyme (1-894). The format is biochemical. On the procedure:
PolQ ATPase enzyme (1-894) at 0.5 nM is incubated with a 10-point concentration response of inhibitors for 15 min at rt in the following buffer: 50 mM Tris Cl pH 7.5, 10% glycerol, 5 mM DTT, 10 mM MgCl2, 0.1 mg/ml BSA. Following pre-incubation with inhibitors, DNA (Fork C) at 20 nM and ATP at 100 μM are added to start the reaction. Enzymatic reaction proceeds at rt for 180 min ATP consumption is measured using the ADP-Glo assay from Promega. Luminescence is read on the Envision and IC50 are determined using the variable slope 4-parameters equation.
Oligos are annealed by heating at 9500 for 5 min in the following buffer (10 mM Tris-HCl pH7.5, 50 mM NaCl, 1 mM EDTA) and cooled to rt. […]
In general terms: In ADP-Glo the light output rises with the ADP produced.

Sequence of PolQ ATPase enzyme (1-894) (O75417 1-894): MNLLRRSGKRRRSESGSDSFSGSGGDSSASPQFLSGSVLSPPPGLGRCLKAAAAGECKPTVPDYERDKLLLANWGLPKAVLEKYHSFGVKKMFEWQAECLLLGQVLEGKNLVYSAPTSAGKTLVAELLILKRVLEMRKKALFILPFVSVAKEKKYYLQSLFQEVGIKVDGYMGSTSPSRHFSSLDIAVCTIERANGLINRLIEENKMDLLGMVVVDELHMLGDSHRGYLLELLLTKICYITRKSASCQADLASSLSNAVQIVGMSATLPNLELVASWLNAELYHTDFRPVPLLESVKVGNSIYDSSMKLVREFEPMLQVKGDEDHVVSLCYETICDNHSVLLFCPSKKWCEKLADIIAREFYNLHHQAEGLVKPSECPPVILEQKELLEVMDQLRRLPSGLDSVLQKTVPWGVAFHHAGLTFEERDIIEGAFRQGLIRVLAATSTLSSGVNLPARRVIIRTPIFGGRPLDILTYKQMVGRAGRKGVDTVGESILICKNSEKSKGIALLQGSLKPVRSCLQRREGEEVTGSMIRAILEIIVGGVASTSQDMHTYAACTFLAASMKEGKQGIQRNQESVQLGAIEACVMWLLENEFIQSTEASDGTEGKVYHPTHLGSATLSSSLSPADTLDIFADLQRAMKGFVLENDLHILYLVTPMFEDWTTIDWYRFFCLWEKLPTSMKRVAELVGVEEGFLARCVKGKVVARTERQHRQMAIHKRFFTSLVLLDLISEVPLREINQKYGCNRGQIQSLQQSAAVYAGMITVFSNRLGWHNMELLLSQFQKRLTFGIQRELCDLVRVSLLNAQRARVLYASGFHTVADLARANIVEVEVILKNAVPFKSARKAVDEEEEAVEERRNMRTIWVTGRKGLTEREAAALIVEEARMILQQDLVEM

Consider `COc1ccc(C(F)(F)F)cc1-c1cnccc1C(=O)Nc1nnc(C#Cc2cc(C)[nH]n2)s1` [Compound 27, 3-[2-methoxy-5-(trifluoromethyl)phenyl]-N-[5-[2-(5-methyl-1H-pyrazol-3-yl)ethynyl]-1,3,4-thiadiazol-2-yl]pyridine-4-carboxamide], for which the IC50 came to 0.26 nM. To `COc1cnc(Cl)cc1-c1cnccc1C(=O)Nc1nnc(C#Cc2cc(C)[nH]n2)s1` [Compound 28, 3-(2-chloro-5-methoxy-4-pyridyl)-N-[5-[2-(5-methyl-1H-pyrazol-3-yl)ethynyl]-1,3,4-thiadiazol-2-yl]pyridine-4-carboxamide] belongs 0.36 nM; to `Cc1cc(C#Cc2nnc(NC(=O)c3ccncc3-c3cc(F)ccc3Cl)s2)n[nH]1` [Compound 29], 0.6 nM; to `COc1ccc(C(F)(F)F)cc1-c1cnccc1C(=O)Nc1nnc(C2CC2c2ccc(C#N)cc2)s1` (centres unmarked) [Compound 30], 0.76 nM. Turning to `COc1cnc(C(F)F)cc1-c1cnccc1C(=O)Nc1nnc(C#CC2CC2)s1` [Compound 31, N-(5-(cyclopropylethynyl)-1,3,4-thiadiazol-2-yl)-2′-(difluoromethyl)-5′-methoxy-[3,4′-bipyridine]-4-carboxamide], the IC50 came out at 0.63 nM. Take `COc1cnc(Cl)cc1-c1cn(C)c(=O)cc1C(=O)Nc1nnc(C#CC2CC2)s1` [Compound 32, 2′-chloro-N-(5-(cyclopropylethynyl)-1,3,4-thiadiazol-2-yl)-5′-methoxy-1-methyl-6-oxo-1,6-dihydro-[3,4′-bipyridine]-4-carboxamide]: inhibition was half-maximal at 0.66 nM (IC50). This IC50 and that of the compound before are within 1.5-fold of each other.

`COc1ccc(C(F)(F)F)cc1-c1cc(CC(=O)N(C)C)ncc1C(=O)Nc1nnc(C#CC2CC2)s1` [Compound 33, N-(5-(cyclopropylethynyl)-1,3,4-thiadiazol-2-yl)-6-(2-(dimethylamino)-2-oxoethyl)-4-(2-methoxy-5-(trifluoromethyl)phenyl)nicotinamide] gave an IC50 of less than 0.25 nM. Under `CN(C)C(=O)Cn1cc(-c2cc(C(F)(F)F)ccc2Cl)c(C(=O)Nc2nnc(C#CC3CC3)s2)cc1=O` [Compound 34, 5-(2-chloro-5-(trifluoromethyl)phenyl)-N-(5-(cyclopropylethynyl)-1,3,4-thiadiazol-2-yl)-1-(2-(dimethylamino)-2-oxoethyl)-2-oxo-1,2-dihydropyridine-4-carboxamide] stands 0.29 nM; under `COc1cnc(Cl)cc1-c1cc(CC(=O)N(C)C)ccc1C(=O)Nc1nnc(C#CC2CC2)s1` [Compound 35, 2-(2-chloro-5-methoxypyridin-4-yl)-N-(5-(cyclopropylethynyl)-1,3,4-thiadiazol-2-yl)-4-(2-(dimethylamino)-2-oxoethyl)benzamide], less than 0.25 nM.

As to `COc1cnc(C(F)F)cc1-c1cn2ncnc2cc1C(=O)Nc1nnc(C#CC2CC2)s1` [Compound 36, N-(5-(cyclopropylethynyl)-1,3,4-thiadiazol-2-yl)-6-(2-(difluoromethyl)-5-methoxypyridin-4-yl)-[1,2,4]triazolo[1,5-a]pyridine-7-carboxamide], it took 6.6 nM to reach half-maximal inhibition (IC50). This counts as single-digit nanomolar.

Compound `COc1cnc(C(F)F)cc1-c1cn(C)c(=O)cc1C(=O)Nc1nnc(C#CC2CC2)s1` [Compound 37, N-(5-(cyclopropylethynyl)-1,3,4-thiadiazol-2-yl)-2′-(difluoromethyl)-5′-methoxy-1-methyl-6-oxo-1,6-dihydro-[3,4′-bipyridine]-4-carboxamide] returned a 50% inhibitory concentration (IC50) of 3.3 nM.

On to `COc1cnc(Cl)cc1-c1cc(N2CCCC2=O)ccc1C(=O)Nc1nnc(C#CC2CC2)s1` [Compound 39], for which inhibition was half-maximal at 0.27 nM (IC50). As for `COc1cnc(Cl)cc1-c1cc(C#N)ccc1C(=O)Nc1nnc(C#CC2CC2)s1` [Compound 40], the half-maximal inhibitory concentration (IC50) is less than 0.25 nM. To `COc1ccc(C(F)(F)F)cc1-c1cc(Cl)ncc1C(=O)Nc1nnc(C#CC2CC2)s1` [Compound 41] belongs less than 0.25 nM; to `COc1ccc(C(F)F)cc1-c1cn(C)c(=O)cc1C(=O)Nc1nnc(C#CC2CC23CC3)s1` (centres unmarked) [Compound 42], 1.8 nM; to `Cc1ccc(Cl)cc1-c1cnccc1C(=O)Nc1nnc(C#CC2CC2)s1` [Compound 43], less than 0.25 nM. Under `O=C(Nc1nnc(C#CC2CC2)s1)c1ccncc1-c1cc(Cl)ncc1Cl` [Compound 44] stands 0.31 nM; under `COc1cnc(Cl)cc1-c1cc(-c2cccnn2)ccc1C(=O)Nc1nnc(C#CC2CC2)s1` [Compound 45], 2.2 nM; under `COc1cnc(Cl)cc1-c1cc(-c2cc[nH]n2)ccc1C(=O)Nc1nnc(C#CC2CC2)s1` [Compound 46], 0.2 nM.

Compound `O=C(Nc1nnc(C#CC2CC23CC3)s1)c1cc2ncnn2cc1-c1cc(Cl)ncc1OC(F)F` (centres unmarked) [Compound 47] returned an IC50 of 0.62 nM. `COc1cnc(C(F)F)cc1-c1cn2ncnc2cc1C(=O)Nc1nnc(C#CC2CC23CC3)s1` (centres unmarked) [Compound 48] came in with an IC50 of 2.5 nM. To `COc1cnc(C(F)F)cc1-c1cn(C)c(=O)cc1C(=O)Nc1nnc(C#CC2CC23CC3)s1` (centres unmarked) [Compound 49] belongs 0.75 nM; to `O=C(Nc1nnc(C#CC2CC2)s1)c1cc2ncnn2cc1-c1cc(Cl)ncc1OC(F)F` [Compound 50], 2.4 nM; to `COc1ccc(C(F)(F)F)nc1-c1cn(CC(=O)N(C)C)c(=O)cc1C(=O)Nc1nnc(C#CC2CC2)s1` [Compound 51], 2.1 nM. To `CNC(=O)Cn1cc(-c2nc(C(F)(F)F)ccc2OC)c(C(=O)Nc2nnc(C#CC3CC3)s2)cc1=O` [Compound 52] belongs 2.4 nM. In turn, `COc1cnc(Cl)cc1-c1cc(C#CC2(O)CCOCC2)ccc1C(=O)Nc1nnc(C#CC2CC2)s1` [Compound 53] showed an IC50 of 0.31 nM. Under `COc1cnc(Cl)cc1-c1cc(C#CC2(O)COC2)ccc1C(=O)Nc1nnc(C#CC2CC2)s1` [Compound 54] stands less than 0.25 nM. Under `COc1ccc(C(F)F)cc1-c1cnccc1C(=O)Nc1nnc(C#CC2CC23CC3)s1` (centres unmarked) [Compound 55] stands less than 0.25 nM. `COc1ccc(C(F)F)cc1-c1cnccc1C(=O)Nc1nnc(C#CC2CC2)s1` [Compound 56] registered an IC50 of less than 0.25 nM. Turning to `COc1cnc(C(F)(F)F)cc1-c1cn(C)c(=O)cc1C(=O)Nc1nnc(C#CC2CC23CC3)s1` (centres unmarked) [Compound 58], inhibition was half-maximal at 0.91 nM (IC50). That is a sub-nanomolar value. To `COc1cnc(C(F)(F)F)cc1-c1cn(C)c(=O)cc1C(=O)Nc1nnc(C#CC2CC2)s1` [Compound 59] belongs 1.89 nM. Under `COc1ccc(C(F)(F)F)cc1-c1cn(C)c(=O)cc1C(=O)Nc1nnc(C#CC2CC23CC3)s1` (centres unmarked) [Compound 60] stands 1.1 nM. Under `Cc1nnc(Cn2cc(-c3cc(C(F)(F)F)ccc3Cl)c(C(=O)Nc3nnc(C#CC4CC4)s3)cc2=O)o1` [Compound 61] stands less than 0.25 nM; under `COc1cnc(Cl)cc1-c1cnccc1C(=O)Nc1nnc(C2CC2c2ccc(OC(F)F)cc2)s1` (centres unmarked) [Compound 62], 0.36 nM; under `COc1cnc(Cl)cc1-c1cn2ncnc2cc1C(=O)Nc1nnc(C#CC2CC23CC3)s1` (centres unmarked) [Compound 64], 1.9 nM. In the case of `O=C(Nc1nnc(C#CC2CC2)s1)c1cc(=O)n(Cc2nccs2)cc1-c1cc(C(F)(F)F)ccc1Cl` [Compound 65], the concentration for half-maximal inhibition (IC50) was 2.2 nM. Under `CN(C)C(=O)Cn1cc(-c2cc(F)ccc2Cl)c(C(=O)Nc2nnc(C#CC3CC3)s2)cc1=O` [Compound 66] stands 0.6 nM; under `COc1cnc(Cl)nc1-c1cnccc1C(=O)Nc1nnc(C#CC2CC2)s1` [Compound 68], 1.6 nM.

As for `COc1cnc(C(F)(F)F)cc1-c1cnccc1C(=O)Nc1nnc(C#CC2CC23CC3)s1` (centres unmarked) [Compound 69], the IC50 came to 0.28 nM. Compared with the last compound, the IC50 is about 5.7-fold lower. To `COc1cnc(C)cc1-c1cnccc1C(=O)Nc1nnc(C#CC2CC2)s1` [Compound 70] belongs 2.5 nM; to `COc1cnc(CF)cc1-c1cnccc1C(=O)Nc1nnc(C#CC2CC2)s1` [Compound 71], 1.8 nM. Under `COc1cnc(Cl)cc1-c1cc(C#N)ncc1C(=O)Nc1nnc(C#CC2CC2)s1` [Compound 72] stands 0.62 nM.

Regarding `COc1cnc(Cl)cc1-c1cc(C(N)=O)ncc1C(=O)Nc1nnc(C#CC2CC2)s1` [Compound 73], the IC50 is 0.42 nM.

`Cn1cc(-c2cc(Cl)ncc2OC(F)F)c(C(=O)Nc2nnc(C#CC3CC3)s2)cc1=O` [Compound 74] displayed an IC50 of 0.73 nM. As for `COc1ccc(C(F)(F)F)cc1-c1cn(CC(=O)N(C)C)c(=O)cc1C(=O)Nc1nnc(C#CC2CC2)s1` [Compound 75], the IC50 is less than 0.25 nM. The compound `NC(=O)Cn1cc(-c2cc(Cl)ncc2OC(F)F)c(C(=O)Nc2nnc(C#CC3CC3)s2)cc1=O` [Compound 76] had an IC50 of less than 0.25 nM. `CNC(=O)Cn1cc(-c2cc(Cl)ncc2OC(F)F)c(C(=O)Nc2nnc(C#CC3CC3)s2)cc1=O` [Compound 77] returned an IC50 of less than 0.25 nM.

Compound `COc1ccc(C(F)(F)F)cc1-c1cn(C2COC2)c(=O)cc1C(=O)Nc1nnc(C#Cc2cc(C)[nH]n2)s1` [Compound 78] registered an IC50 of 2.71 nM. Under `COc1cnc(C2CC2)cc1-c1cnccc1C(=O)Nc1nnc(C#CC2CC2)s1` [Compound 79] stands 1.21 nM. To `COc1ccc(C(F)(F)F)cc1-c1cn(C)c(=O)cc1C(=O)Nc1nnc(C#CC2CC2)s1` [Compound 80] belongs 2.1 nM; to `COc1ccc(C(F)(F)F)cc1-c1cn(CC(=O)N(C)C)c(=O)cc1C(=O)Nc1nnc(C#Cc2cc(C)[nH]n2)s1` [Compound 81], less than 0.25 nM. Under `CNC(=O)Cn1cc(-c2cc(C(F)(F)F)ccc2OC)c(C(=O)Nc2nnc(C#Cc3cc(C)[nH]n3)s2)cc1=O` [Compound 82] stands less than 0.25 nM. As to `COc1cnc(Cl)cc1-c1cn(CC(N)=O)c(=O)cc1C(=O)Nc1nnc(C#CC2CC23CC3)s1` (centres unmarked) [Compound 83], the half-maximal inhibitory concentration (IC50) is less than 0.25 nM.
